Measurements as given in patent US20220304945A1, “METHODS OF TREATING METABOLIC SYNDROME RELATED CONDITIONS USING RETINOIC ACID RECEPTOR AGONISTS” (Cornell University, priority 2014, published 2022).
Entries after “also recorded” stand apart in the source; their conditions may differ.

Assays:
Format in all cases: in vivo, mouse
[1] = test system: 4-HNE, oxidative stress in pancreatic islets; assay: 4-hydroxynonenal (4-HNE) staining of pancreas, HF-fed mice; conditions: HF diet mice, AC261066 in drinking water; vs HF-vehicle
Text: Mice, diet, and drug treatment. WT male C57/BL6 male mice were maintained on either a standard laboratory chow-fed diet (CFD) with 13% kcal fat, (diet #5053, Lab Diet, Inc, St. Louis, Mo.) or a high fat, western style diet (HFD) with 60% kcals from fat, (diet #58126, Lab Diet, Inc., St. Louis, Mo.) for 4 months. One month after the start of the high fat diet treatment, the high fat diet group was further split into 2 groups for 3 months: i) high fat diet and the drinking water containing 1% DMSO; ii) high fat diet and the drinking water containing 1.5 mg/100 ml AC261066, a specific RARβ agonist. Then mice were sacrificed by cervical dislocation. Blood and various tissue samples were harvested.
4-hydroxynonenal (4-HNE) staining. Paraffin-embedded sections (from two to four mice per group) were deparaffinized and rehydrated, and antigen retrieval was performed using an antigen unmasking solution (Vector Laboratories, H-3300). After quenching endogenous peroxidase with 3% H2O2, the tissue sections were blocked with the blocking reagent (from the M.O.M. kit from Vector Laboratories). Then, tissue sections were incubated with a 4-HNE antibody (1:400; mouse monoclonal antibody; Abcam, ab48506) overnight at 4° C. The sections were then incubated with secondary antibodies (1:200, anti-mouse IgG from the M.O.M kit). […]

c-peptide = assay: c-peptide/glucagon immunofluorescence of pancreatic islets, HF-fed mice; conditions: HF diet mice 4 months; vs HF diet
Experimental: Indirect Immunofluorescence. Immunofluorescence assays on cells and tissue sections were performed as previously described (29). Briefly, differentiated samples were fixed using 4% (w/v) paraformaldehyde and membrane permeabilization (for cells only) was done with 0.3% (w/v) Triton-X 100 (Sigma). Unspecific sites were blocked using 2% BSA for 30 min prior to incubation with rabbit polyclonal anti-PDX1 (Millipore, 06-1379, 1:1000), rabbit anti-C-Peptide (Cell Signaling, 4593, 1:500, Danvers, Mass.) and mouse monoclonal anti-Glucagon (Abcam, ab10988, 1:200) primary antibodies. Phalloidin-TRITC (Millipore, FAK100, 1:1000, Billerica, Mass.) was used to stain the actin stress fiber network (F-actin). Nuclei were stained using DAPI contained in Vectashield® mounting medium for fluorescence (Vector labs, Burlingame, Calif.). Quantitation of C-peptide positive stained cells and islet surface area was performed using NIS-Elements Advanced Research software (Nikon).
Mice, diet, and drug treatment. WT male C57/BL6 male mice were maintained on either a standard laboratory chow-fed diet (CFD) with 13% kcal fat, (diet #5053, Lab Diet, Inc, St. Louis, Mo.) or a high fat, western style diet (HFD) with 60% kcals from fat, (diet #58126, Lab Diet, Inc., St. Louis, Mo.) for 4 months. […]

[2] = test system: PPARα, CPT1-α, CPT2, ACAT1, FASN, SREBP1, ACC1, HSL, PLIN, ADIPOQ mRNA; assay: Q-PCR of lipid metabolism genes in liver, pancreas and adipose tissue; conditions: Wt and Ob/Ob mice, pancreas, adipose
Experimental: RNA Isolation and cDNA Synthesis-Total RNA was isolated from whole pancreas and small intestine homogenates using RNeasy mini kits (Qiagen, Valencia, Calif.) and quantified using a Nano Drop 2000 spectrophotometer (Thermo Scientific, Wilmington, Del.). Total RNA (2 μg) was used to synthesize cDNA with random primers using a qScript cDNA synthesis kit (Quanta Biosciences, Gaithersburg, Md.).
Quantitative RT-PCR (Q-PCR)-Q-PCR was performed using SYBR Green PCR master mix on a Bio-Rad MyiQ2 Real Time PCR iCycler (Bio-Rad, Inc. Hercules, Calif.). Gene specific primers (Table 5) were used to amplify mRNA target genes, which were normalized to Hprt internal control genes. cDNA from 3-5 mice per experimental group was analyzed for relative mRNA fold changes, calculated using the Pfaffl method (Pfaffl M W, A new mathematical model for relative quantification in real-time RT-PCR, Nucleic Acids Res. 2001 May 1; 29(9):e45). Relative gene expression values are reported as mean±standard error of the mean (S.E.M) and P-values calculated using one-way analysis of variance followed by Bonferroni multiple comparison test post-hoc analysis.

HF-fed C57/BL6 mice = assay: HF-fed mice treated 3 months: body weight, GTT, fasting glucose (Example 22)
Experimental: METHODS. Preparation of RARβ agonists solution. AC261066 and AC55649 were dissolved in dimethyl sulfoxide (DMSO) at the concentration of 3.0 mg/ml and diluted in the drinking water for mice to the final concentration of 3.0-mg/100 ml. Mice, diet, and drug treatments. Wt male C57/BL6 male mice were maintained on either a standard laboratory chow-fed diet (Con) with 13% kcal fat, (diet #5053, Lab Diet, Inc, St. Louis, Mo., [n=4]) or a high fat, western style diet (HFD) with 45% kcals from fat, (diet #58126, Lab Diet, Inc., St. Louis, Mo.) for 3 months. Two weeks after the start of the HFD treatment, the HFD group was further split into 3 groups for 3 months: i) HFD and drinking water containing 1% DMSO (n=5); ii) high fat diet (HFD) and drinking water containing 3.0 mg/100 ml AC261066, a specific RARβ agonist (n=5) or iii) HFD and drinking water containing 3.0 mg/100 ml AC55649, a specific RARβ agonist (n=4). After 3 months the mice were tested for glucose intolerance with an intra-peritoneal glucose tolerance test (GTT). Mice were then sacrificed by cervical dislocation. Blood and various tissue samples were harvested.
Glucose Tolerance Test (GTT). Glucose tolerance was performed using an intraperitoneal glucose tolerance test (GTT). Mice were fasted overnight (˜16 hrs) followed by intra-peritoneal injections (n=3-5 per group) of 50% glucose in PBS at 2.0 g of glucose/kg of body weight. Tail vein blood was collected at 15, 30, 45, 60, and 120 minutes post-injection for glucose measurements using a FreeStyle Lite Blood Glucose Monitoring System (Abbott Diabetes Care, Inc. Alameda, Calif.). Random and fasting blood glucose measurements were taken from tail veins of 4 mice per group at 2-3 random time points daily or just prior to GTT. Means are expressed as ±standard error of the mean (S.E.M) and P-values were calculated using one-way analysis of variance followed by Bonferroni post-hoc analysis. Grubbs' maximum normal residual test was used for detection of one or more outliers.

CCCCOCCOc1nc(-c2ccc(C(=O)O)c(F)c2)sc1C [AC261066]
4-HNE level (oxidative stress) in pancreatic islets [1]: reduces oxidative stress; also recorded: markedly lower | c-peptide level in pancreatic islets (c-peptide): slightly reduces; also recorded: slightly decreased | tissue expression of genes involved in lipogenesis and mitochondrial oxidation of lipids [2]: alters | glucose tolerance and area under the curve glucose (HF-fed C57/BL6 mice): improved | overnight fasting glucose levels (HF-fed C57/BL6 mice): significant reductions | decrease in body weights compared to HF-fed mice (HF-fed C57/BL6 mice; 3.0 mg/100 ml drinking water): ~10%
